For one experiment, the system named is E. coli HH 33779. Put plainly: MIC in vitro, E. coli HH 33779 (G-). The settings on record: Escherichia coli, HH33779. It counts as cell-based.
A further experiment relates to Strep. Faecalis HH 34358. In words: MIC in vitro, Strep. Faecalis HH 34358 (G+). It counts as cell-based. The note with it: Enterococcus faecalis.
For another experiment, the system named is Pseudo Aeruginosa HH 63. In words: MIC in vitro, Pseudo Aeruginosa HH 63 (G-). Format: cell-based.
In experiment [1] the test system is Entero. aerogenes ATCC 13048. Put plainly: MIC in vitro, Entero. aerogenes ATCC 13048 (G-). Format: cell-based. The settings on record: Klebsiella aerogenes, ATCC13048.
The test system of experiment [2] is Serratia Marcescens ATCC 13880. In words: MIC in vitro, Serratia Marcescens ATCC 13880 (G-). Format: cell-based. The note with it: ATCC13880.
The next experiment relates to S. Aureus SK 23390. In words: MIC in vitro, S. Aureus SK 23390 (G+). Format: cell-based. The note with it: Staphylococcus aureus.
The subject of the next experiment is E. coli 12140. Put plainly: mouse protection against E. coli 12140. It counts as in vivo. The settings on record: Escherichia coli, sc, S.C. From the text:
For comparison with known used compounds, data for cefuroxime, cefazolin and cephalothin are included.

The subject of a further experiment is Salmonella ATCC 12176. In words: MIC in vitro, Salmonella ATCC 12176 (G-). Format: cell-based. The settings on record: ATCC12176.
A further experiment deals with Kleb. pneumoniae SK 1200. In words: MIC in vitro, Kleb. pneumoniae SK 1200 (G-). Format: cell-based. The note with it: Klebsiella pneumoniae, SK1200.
Another experiment deals with Kleb. pneumoniae SK 2400. In words: MIC in vitro, Kleb. pneumoniae SK 2400 (G-). Format: cell-based. The note with it: Klebsiella pneumoniae, SK2400.
Another experiment concerns S. villaluz SK 70390. Put plainly: MIC in vitro, S. villaluz SK 70390 (G+). Format: cell-based.
For another experiment, the system named is E. coli SK 12140. Put plainly: MIC in vitro, E. coli SK 12140 (G-). It counts as cell-based. The settings on record: Escherichia coli, SK12140.
The test system of another experiment is P. Mirabils PM 444. Put plainly: MIC in vitro, P. Mirabils PM 444 (G-). It counts as cell-based.
The next experiment concerns Entero. cloacae HH 31254. In words: MIC in vitro, Entero. cloacae HH 31254 (G-). It counts as cell-based. The note with it: Enterobacter cloacae, HH31254.
A further experiment relates to S. Aureus HH 127. Put plainly: MIC in vitro, S. Aureus HH 127 (G+). Format: cell-based. The settings on record: Staphylococcus aureus.
In another experiment the test system is Proteus morgani 179. In words: MIC in vitro, Proteus morgani 179 (G-). Format: cell-based.
Where [3] appears, read: in vitro, G+, Strep. Faecalis HH 34358, read-out: MIC.
The mark [4] stands for this setting: in vitro, G-, Entero. aerogenes ATCC 13048, read-out: MIC.
Where [5] appears, read: in vitro, G+, S. Aureus SK 23390, read-out: MIC.
[6] abbreviates: in vitro, G-, Salmonella ATCC 12176, read-out: MIC.
Where [7] appears, read: in vitro, G-, Kleb. pneumoniae SK 1200, read-out: MIC.
Setting [8] is: in vitro, G-, Kleb. pneumoniae SK 2400, read-out: MIC.
Setting [9] is: in vitro, G+, S. villaluz SK 70390, read-out: MIC.
The mark [10] stands for this setting: in vitro, G-, Entero. cloacae HH 31254, read-out: MIC.
The mark [11] stands for this setting: in vitro, G+, S. Aureus HH 127, read-out: MIC.
[12] abbreviates: in vitro, G-, Proteus morgani 179, read-out: MIC.

Values after ≈ are worked out from the molar mass of the structure shown. Structures can show the parent of a compound that is named as a salt. Where two headings read alike, the source gives them in different places.

Usually MIC stands for the smallest concentration in the dilution series that meets the test's criterion for growth inhibition. By ED50 is commonly meant the midpoint of the dose-response relation. A lower ED50 goes with an effect at a small dose. `Cc1nnc(SCC2=C(C(=O)O)N3C(=O)[C@@H](NC(=O)Cn4cnnn4)[C@H]3SC2)s1` [Cefazolin, cefazolin]: the MIC with E. coli HH 33779 (in vitro, G-, E. coli HH 33779, read-out: MIC) was 0.8 µg/mL (≈ 1.76 µM); with Strep. Faecalis HH 34358 (setting [3]) it was 6.3 µg/mL (≈ 13.9 µM); with Pseudo Aeruginosa HH 63 (in vitro, G-, Pseudo Aeruginosa HH 63, read-out: MIC), above 200 µg/mL; in [1] (setting [4]), 1.6 µg/mL (≈ 3.52 µM); in [2] (in vitro, G-, Serratia Marcescens ATCC 13880, read-out: MIC) it was 100 µg/mL (≈ 220 µM); in the experiment with S. Aureus SK 23390 (setting [5]) it was 0.2 µg/mL (≈ 0.44 µM). In addition, the minimal inhibitory concentration (MIC) in the experiment on Salmonella ATCC 12176 (setting [6]) is 0.8 µg/mL (≈ 1.76 µM); with Kleb. pneumoniae SK 1200 (setting [7]), 0.8 µg/mL (≈ 1.76 µM); in the experiment on Kleb. pneumoniae SK 2400 (setting [8]), 0.8 µg/mL (≈ 1.76 µM); with S. villaluz SK 70390 (setting [9]), 200 µg/mL (≈ 440 µM); against E. coli SK 12140, 0.8 µg/mL (≈ 1.76 µM); against P. Mirabils PM 444, 3.1 µg/mL (≈ 6.82 µM). Further, the minimum inhibitory concentration (MIC) in the experiment with Entero. cloacae HH 31254 (setting [10]) stood at 0.8 µg/mL (≈ 1.76 µM); in the experiment with S. Aureus HH 127 (setting [11]), 0.4 µg/mL (≈ 0.88 µM); with Proteus morgani 179 (setting [12]) it was 100 µg/mL (≈ 220 µM). Besides, the median effective dose (ED50) in the experiment with E. coli 12140 was determined as 6.25 mg/kg.
Regarding `CO/N=C(\C(=O)N[C@@H]1C(=O)N2C(C(=O)O)=C(COC(N)=O)CS[C@H]12)c1ccco1` [Cefuroxim, cefuroxime], the MIC with E. coli HH 33779 was 6.3 µg/mL (≈ 14.8 µM); in the experiment on Strep. Faecalis HH 34358 (setting [3]) it was 2.5 µg/mL (≈ 5.89 µM); in the experiment with Pseudo Aeruginosa HH 63, above 200 µg/mL; in [1] (setting [4]), 6.3 µg/mL (≈ 14.8 µM); in [2] (Serratia marcescens) it was 12.5 µg/mL (≈ 29.5 µM); in the experiment with S. Aureus SK 23390, 1.6 µg/mL (≈ 3.77 µM). Further, the minimum inhibitory concentration (MIC) against Salmonella ATCC 12176 (Salmonella) is 3.1 µg/mL (≈ 7.3 µM); against Kleb. pneumoniae SK 1200 it was 3.1 µg/mL (≈ 7.3 µM); in the experiment with Kleb. pneumoniae SK 2400, 3.1 µg/mL (≈ 7.3 µM); against S. villaluz SK 70390, above 200 µg/mL; in the experiment with E. coli SK 12140, 6.3 µg/mL (≈ 14.8 µM); against P. Mirabils PM 444, 1.6 µg/mL (≈ 3.77 µM). Moreover, the results for the MIC against Entero. cloacae HH 31254, against S. Aureus HH 127 and in the experiment on Proteus morgani 179 (setting [12]) were 3.1 µg/mL (≈ 7.3 µM), 0.8 µg/mL (≈ 1.89 µM) and 50 µg/mL (≈ 118 µM), respectively. The compound further registered an ED50 in the experiment with E. coli 12140 of 6.25 mg/kg.
In the case of `CC(=O)OCC1=C(C(=O)O)N2C(=O)[C@@H](NC(=O)Cc3cccs3)[C@H]2SC1` [Cephalothin, cephalothin], the MIC against E. coli HH 33779 is 6.3 µg/mL (≈ 15.9 µM); in the experiment on Strep. Faecalis HH 34358, 12.5 µg/mL (≈ 31.5 µM); in the experiment with Pseudo Aeruginosa HH 63, above 200 µg/mL; in experiment [1] it was 12.5 µg/mL (≈ 31.5 µM); in [2] (Serratia marcescens) it was above 200 µg/mL; with S. Aureus SK 23390 (setting [5]), 0.2 µg/mL (≈ 0.504 µM). The minimum inhibitory concentration (MIC) is 0.8 µg/mL (≈ 2.02 µM) in the experiment on Salmonella ATCC 12176 (setting [6]); 1.6 µg/mL (≈ 4.04 µM) in the experiment with Kleb. pneumoniae SK 1200; 3.1 µg/mL (≈ 7.82 µM) in the experiment with Kleb. pneumoniae SK 2400; 50 µg/mL (≈ 126 µM) in the experiment with S. villaluz SK 70390 (setting [9]); 3.1 µg/mL (≈ 7.82 µM) against E. coli SK 12140; 3.1 µg/mL (≈ 7.82 µM) in the experiment on P. Mirabils PM 444. The results for the MIC in the experiment on Entero. cloacae HH 31254 (setting [10]), in the experiment on S. Aureus HH 127 (setting [11]) and against Proteus morgani 179 were 6.3 µg/mL (≈ 15.9 µM), 0.2 µg/mL (≈ 0.504 µM) and above 200 µg/mL, respectively.
As to `CO/N=C(\C(=O)N[C@@H]1C(=O)N2C(C(=O)O)=C(CSc3nnnn3CCC(=O)O)CS[C@H]12)c1ccco1` [Example 1, 7[Syn-2-methoxyimino-2-α-furylacetamido]-3-[1-(2-carboxyethyl)tetrazol-5-ylthiomethyl]-3-cephem-4-carboxylic acid, disodium salt], the minimum inhibitory concentration (MIC) turned out to be 3.1 µg/mL against E. coli HH 33779; 50 µg/mL in the experiment on Strep. Faecalis HH 34358; 200 µg/mL in the experiment with Pseudo Aeruginosa HH 63; 3.1 µg/mL in experiment [1]; 3.1 µg/mL in experiment [2] (Serratia marcescens); 1.6 µg/mL in the experiment on S. Aureus SK 23390. Also, the minimum inhibitory concentration (MIC) is 0.8 µg/mL in the experiment with Salmonella ATCC 12176 (setting [6]); 0.8 µg/mL in the experiment with Kleb. pneumoniae SK 1200 (setting [7]); 0.8 µg/mL in the experiment with Kleb. pneumoniae SK 2400 (setting [8]); above 200 µg/mL with S. villaluz SK 70390 (setting [9]); 1.6 µg/mL in the experiment with E. coli SK 12140 (in vitro, G-, E. coli SK 12140, read-out: MIC); 0.2 µg/mL against P. Mirabils PM 444. For the same compound, the minimal inhibitory concentration (MIC) in the experiment on Entero. cloacae HH 31254 (setting [10]) came out at 1.6 µg/mL; in the experiment with S. Aureus HH 127 it was 3.1 µg/mL; in the experiment on Proteus morgani 179 (setting [12]), 1.6 µg/mL. For the same compound, in the experiment on E. coli 12140, it took a dose of 4.4 mg/kg to reach the 50% effect level (ED50).

The record behind these values is US4278670A, “7-Alpha-oxyiminoacylcephalosporins” (SmithKline Corporation, priority 1976, dated 1981).
